Assay results as given in patent publication US9758492B2, “IDO inhibitors” (Bristol-Myers Squibb Company, priority 2013, dated 2017).

target: IDO (Homo sapiens, UniProt P14902); assay: LLE_IDO_ABS_DR (IDO assay)
Sequence (P14902 whole entry): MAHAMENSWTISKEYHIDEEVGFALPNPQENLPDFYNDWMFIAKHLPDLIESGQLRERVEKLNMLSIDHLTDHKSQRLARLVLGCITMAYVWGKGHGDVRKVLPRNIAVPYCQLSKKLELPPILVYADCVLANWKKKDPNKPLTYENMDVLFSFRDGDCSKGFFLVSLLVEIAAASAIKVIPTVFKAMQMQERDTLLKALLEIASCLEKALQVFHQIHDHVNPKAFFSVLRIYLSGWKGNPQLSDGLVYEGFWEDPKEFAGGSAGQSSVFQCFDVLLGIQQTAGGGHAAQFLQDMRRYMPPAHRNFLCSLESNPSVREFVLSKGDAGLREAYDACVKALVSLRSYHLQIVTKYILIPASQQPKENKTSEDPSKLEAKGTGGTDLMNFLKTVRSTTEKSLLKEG

Structure (SMILES) | IC50
Cc1ccc(NC(=O)Nc2cc(-c3ccccc3-c3nnn[nH]3)ccc2N2CCC(c3ccccc3)C2)cn1 (racemic) [Example 368, (±)-1-(6-Methylpyridin-3-yl)-3-(4-(3-phenylpyrrolidin-1-yl)-2′-(1H-tetrazol-5-yl)-[1,1′-biphenyl]-3-yl)urea] | 2500 nM
O=C(Nc1ccc(OC(F)(F)F)cc1)Nc1cc(-c2ccccc2-c2nnn[nH]2)ccc1N1CCC(c2ccccc2)C1 (racemic) [Example 369, (±)-1-(4-(3-Phenylpyrrolidin-1-yl)-2′-(1H-tetrazol-5-yl)-[1,1′-biphenyl]-3-yl)-3-(4-(trifluoromethoxy)phenyl)urea] | 520 nM
O=C(Nc1ccc(F)nc1)Nc1cc(-c2ccccc2-c2nnn[nH]2)ccc1N1CCC(c2ccccc2)C1 (racemic) [Example 371, (±)-1-(6-Fluoropyridin-3-yl)-3-(4-(3-phenylpyrrolidin-1-yl)-2′-(1H-tetrazol-5-yl)-[1,1′-biphenyl]-3-yl)urea] | 3740 nM
Cc1cc(NC(=O)Nc2cc(-c3ccccc3-c3nnn[nH]3)ccc2N2CCC(c3ccccc3)C2)on1 (racemic) [Example 372, (±)-1-(3-Methylisoxazol-5-yl)-3-(4-(3-phenylpyrrolidin-1-yl)-2′-(1H-tetrazol-5-yl)-[1,1′-biphenyl]-3-yl)urea] | 1940 nM
CC(C)CN(CC(C)C)c1ccc(-c2ccccc2-c2nnn[nH]2)cc1NC(=O)Nc1nccs1 [Example 7, 1-(4-(Diisobutylamino)-2′-(1H-tetrazol-5-yl)biphenyl-3-yl)-3-(thiazol-2-yl)urea] | 20 nM
Cc1ccc(NC(=O)Nc2cc(-c3ccccc3C(=O)O)ccc2N(CCC(F)(F)F)Cc2ccccc2)cc1 [Example 8, 4′-(Benzyl(3,3,3-trifluoropropyl)amino)-3′-(3-(p-tolyl)ureido)-[1,1′-biphenyl]-2-carboxylic acid] | 180 nM
Cc1ccc(NC(=O)Nc2cc(-c3cc(F)ccc3C(=O)O)ccc2N(CCC(F)(F)F)Cc2ccccc2)cc1 [Example 9, 4′-(Benzyl(3,3,3-trifluoropropyl)amino)-5-fluoro-3′-(3-(p-tolyl)ureido)-[1,1′-biphenyl]-2-carboxylic acid] | 350 nM
Cc1ccc(NC(=O)Nc2cc(-c3ccccc3-c3nnn[nH]3)ccc2N(CCC(F)(F)F)Cc2ccccc2)cc1 [Example 10, 1-(4-(Benzyl(3,3,3-trifluoropropyl)amino)-2′-(1H-tetrazol-5-yl)-[1,1′-biphenyl]-3-yl)-3-(p-tolyl)urea] | 100 nM
Cc1ccc(NC(=O)Nc2cc(-c3ccccc3C(=O)O)ccc2N(CCC(F)(F)F)Cc2cccc(Cl)c2)cc1 [Example 11, 4′-((3-Chlorobenzyl)(3,3,3-trifluoropropyl)amino)-3′-(3-(p-tolyl)ureido)-[1,1′-biphenyl]-2-carboxylic acid] | 250 nM
Cc1ccc(NC(=O)Nc2cc(-c3cc(F)ccc3C(=O)O)ccc2N(CCC(F)(F)F)Cc2cccc(Cl)c2)cc1 [Example 12, 4′-((3-Chlorobenzyl)(3,3,3-trifluoropropyl)amino)-5-fluoro-3′-(3-(p-tolyl)ureido)-[1,1′-biphenyl]-2-carboxylic acid] | 220 nM
Cc1ccc(NC(=O)Nc2cc(-c3cc(F)ccc3C(=O)O)ccc2N(CCC(F)(F)F)Cc2ccc(Cl)cc2)cc1 [Example 15, 4′-((4-Chlorobenzyl)(3,3,3-trifluoropropyl)amino)-5-fluoro-3′-(3-(p-tolyl)ureido)-[1,1′-biphenyl]-2-carboxylic acid] | 90 nM
Cc1ccc(NC(=O)Nc2cc(-c3ccccc3C(=O)O)ccc2N(CCC(F)(F)F)Cc2ccccc2Cl)cc1 [Example 17, 4′-((2-Chlorobenzyl)(3,3,3-trifluoropropyl)amino)-3′-(3-(p-tolyl)ureido)-[1,1′-biphenyl]-2-carboxylic acid] | 270 nM
Cc1ccc(NC(=O)Nc2cc(-c3cc(F)ccc3C(=O)O)ccc2N(CCC(F)(F)F)Cc2ccccc2Cl)cc1 [Example 18, 4′-((2-Chlorobenzyl)(3,3,3-trifluoropropyl)amino)-5-fluoro-3′-(3-(p-tolyl)ureido)-[1,1′-biphenyl]-2-carboxylic acid] | 630 nM
Cc1ccc(NC(=O)Nc2cc(-c3cc(F)ccc3C(=O)O)ccc2N(Cc2ccccc2)CC(F)F)cc1 [Example 21, 4′-(Benzyl(2,2-difluoroethyl)amino)-5-fluoro-3′-(3-(p-tolyl)ureido)-[1,1′-biphenyl]-2-carboxylic acid] | 150 nM
Cc1ccc(NC(=O)Nc2cc(-c3ccccc3-c3nnn[nH]3)ccc2N(Cc2ccccc2)CC(F)F)cc1 [Example 22, 1-(4-(Benzyl(2,2-difluoroethyl)amino)-2′-(1H-tetrazol-5-yl)-[1,1′-biphenyl]-3-yl)-3-(p-tolyl)urea] | 30 nM
C#CCN(CC(C)C)c1ccc(-c2ccccc2-c2nnn[nH]2)cc1NC(=O)Nc1ccc(C)cc1 [Example 24, 1-(4-(Isobutyl(prop-2-yn-1-yl)amino)-2′-(1H-tetrazol-5-yl)-[1,1′-biphenyl]-3-yl)-3-(p-tolyl)urea] | 10 nM
[2H]C([2H])(C(C)C)N(c1ccc(-c2ccccc2-c2nnn[nH]2)cc1NC(=O)Nc1ccc(C)cc1)C1CCCCC1 [Example 29, 1-(4-(Cyclohexyl(1,1-dideutero-2-methylpropyl)amino)-2′-(1H-tetrazol-5-yl)biphenyl-3-yl)-3-p-tolylurea] | 4.76 nM
[2H]C([2H])(C(C)C)N(c1ccc(-c2cc(F)ccc2C(=O)O)cc1NC(=O)Nc1ccc(C)cc1)C1CCCCC1 [Example 31, 4′-(Cyclohexyl(1,1-dideutero-2-methylpropyl)amino)-5-fluoro-3′-(3-p-tolylureido)biphenyl-2-carboxylic acid] | 5.18 nM
[2H]C([2H])(C(C)C)N(c1ccc(-c2ccccc2-c2nnn[nH]2)cc1NC(=O)Nc1ccccc1F)C1CCCCC1 [Example 32, 1-(4-(Cyclohexyl(1,1-dideutero-2-methylpropyl)amino)-2′-(1H-tetrazol-5-yl)biphenyl-3-yl)-3-(2-fluorophenyl)urea] | 2.54 nM
[2H]C([2H])(C(C)C)N(c1ccc(-c2ccccc2C(=O)O)cc1NC(=O)Nc1ccccc1F)C1CCCCC1 [Example 33, 4′-(Cyclohexyl(1,1-dideutero-2-methylpropyl)amino)-3′-(3-(2-fluorophenyl)ureido)biphenyl-2-carboxylic acid] | 4.99 nM
[2H]C([2H])(C(C)C)N(c1ccc(-c2cc(F)ccc2C(=O)O)cc1NC(=O)Nc1ccccc1F)C1CCCCC1 [Example 34, 4′-(Cyclohexyl(1,1-dideutero-2-methylpropyl)amino)-5-fluoro-3′-(3-(2-fluorophenyl)ureido)biphenyl-2-carboxylic acid] | 4.01 nM
[2H]C([2H])(C(C)C)N(c1ccc(-c2sccc2C(=O)O)cc1NC(=O)Nc1ccccc1F)C1CCCCC1 [Example 36, 2-(4-(Cyclohexyl(1,1-dideutero-2-methylpropyl)amino)-3-(3-(2-fluorophenyl)ureido)phenyl)thiophene-3-carboxylic acid] | 5.9 nM
Cc1ccc(NC(=O)Nc2cc(-c3ccccc3-c3nnn[nH]3)ccc2N(CCC(F)(F)F)CC2CC2)cc1 [Example 63, 1-(4-((cyclopropylmethyl) (3,3,3-trifluoropropyl)amino)-2′-(1H-tetrazol-5-yl)biphenyl-3-yl)-3-p-tolylurea] | 120 nM

Other lines, results leading:

IC50 | Structure (SMILES)
80 nM | Cc1ccc(NC(=O)Nc2cc(-c3ccccc3NS(=O)(=O)C(F)(F)F)ccc2N(CC(C)C)CC(C)C)cc1 [Example 4, N-(4′-(Diisobutylamino)-3′-(3-p-tolylureido)biphenyl-2-yl)-1,1,1-trifluoromethanesulfonamide]
4.05 nM | Cc1ccc(NC(=O)Nc2cc(-c3ccccc3-c3nnn[nH]3)cc(F)c2N(CC(C)C)CC(C)C)cc1 [Example 5, 1-(4-(Diisobutylamino)-5-fluoro-2′-(1H-tetrazol-5-yl)biphenyl-3-yl)-3-p-tolylurea]
6.47 nM | Cc1ccc(NC(=O)Nc2cc(-c3ccccc3C(=O)O)cc(F)c2N(CC(C)C)CC(C)C)cc1 [Example 6, 4′-(Diisobutylamino)-3′-fluoro-5′-(3-p-tolylureido)biphenyl-2-carboxylic acid]
130 nM | Cc1ccc(NC(=O)Nc2cc(-c3ccccc3C(=O)O)ccc2N(Cc2ccccc2)CC(F)F)cc1 [Example 20, 4′-(Benzyl(2,2-difluoroethyl)amino)-3′-(3-(p-tolyl)ureido)-[1,1′-biphenyl]-2-carboxylic acid]
450 nM | C#CCN(CC(C)C)c1ccc(-c2cc(F)ccc2C(=O)O)cc1NC(=O)Nc1ccc(C)cc1 [Example 23, 5-Fluoro-4′-(isobutyl(prop-2-yn-1-yl)amino)-3′-(3-(p-tolyl)ureido)-[1,1′-biphenyl]-2-carboxylic acid]
30 nM | Cc1ccc(NC(=O)Nc2c(N(CC(C)C)CC(C)C)ccc(-c3ccccc3-c3nnn[nH]3)c2F)cc1 [Example 25, 1-(4-(Diisobutylamino)-2-fluoro-2′-(1H-tetrazol-5-yl)-[1,1′-biphenyl]-3-yl)-3-(p-tolyl)urea]
370 nM | Cc1ccc(NC(=O)Nc2c(N(CC(C)C)CC(C)C)ccc(-c3ccccc3C(=O)O)c2F)cc1 [Example 26, 4′-(Diisobutylamino)-2′-fluoro-3′-(3-(p-tolyl)ureido)-[1,1′-biphenyl]-2-carboxylic acid]
2.55 nM | Cc1ccc(NC(=O)Nc2cc(-c3ccccc3-c3nnn[nH]3)ccc2N(CC(C)C)CC(C)CC(F)(F)F)cc1 (stereo not shown) [Example 27, 1-(4-(Isobutyl(4,4,4-trifluoro-2-methylbutyl)amino)-2′-(1H-tetrazol-5-yl)-[1,1′-biphenyl]-3-yl)-3-(p-tolyl)urea]
10 nM | Cc1ccc(NC(=O)Nc2cc(-c3ccccc3C(=O)O)ccc2N(CC(C)C)CC(C)CC(F)(F)F)cc1 (stereo not shown) [Example 28, 4′-(Isobutyl(4,4,4-trifluoro-2-methylbutyl)amino)-3′-(3-(p-tolyl)ureido)-[1,1′-biphenyl]-2-carboxylic acid]
5.19 nM | [2H]C([2H])(C(C)C)N(c1ccc(-c2ccccc2C(=O)O)cc1NC(=O)Nc1ccc(C)cc1)C1CCCCC1 [Example 30, 4′-(Cyclohexyl(1,1-dideutero-2-methylpropyl)amino)-3′-(3-p-tolylureido)biphenyl-2-carboxylic acid]
10 nM | Cc1ccc(NC(=O)Nc2cc(-c3cscc3C(=O)O)ccc2N(CC(C)C)CC(C)C)cc1 [Example 35, 4-(4-(Diisobutylamino)-3-(3-p-tolylureido)phenyl)thiophene-3-carboxylic acid]
